The structures appear in SMILES notation. Counter-ions that a name gives are not always drawn.

Take `CCCCCCC(NCc1ccc(OC)cc1)c1nc(-c2ccccc2)c[nH]1` (racemic) [Example 227, (R,S)-N-(4-methoxybenzyl)-1-(4-phenyl-1H-imidazol-2-yl)-1-heptanamine]: the melting point was in the range of 126 to 128 °C.

`CC(C)(C)OC(=O)NCCc1nc(-c2ccc(-c3ccccc3)cc2)c[nH]1` [Example 152, 4-(2-{2-[(tert-butoxycarbonyl)amino]ethyl}-1H-imidazol-4-yl)-1,1′-biphenyl] yielded a melting point of 140 to 142 °C.

`Fc1ccc(-c2c[nH]c([C@@H](NCC3CCCCC3)C3CCCCC3)n2)cc1` [Example 293, (S)-1-cyclohexyl-N-(cyclohexylmethyl)-1-[4-(4-fluorophenyl)-1H-imidazol-2-yl]methanamine] gave a melting point of 184.8 °C.

Molecule `c1ccc(OCCN[C@H](Cc2c[nH]c3ccccc23)c2nc(-c3ccccc3)c[nH]2)cc1` [Example 108, (1R)-2-(1H-indol-3-yl)-N-(2-phenoxyethyl)-1-(4-phenyl-1H-imidazol-2-yl)ethanamine] showed a melting point of 94 to 96 °C.

`N[C@H](c1nc(-c2cccc(F)c2)c[nH]1)C1CCCCC1` (as salt: hydrochloride) [Example 311, (S)-1-cyclohexyl-1-[4-(3-fluorophenyl)-1H-imidazol-2-yl]methanamine] showed a melting point of 238 to 241 °C.

As to `CCC[C@@H](NCc1ccccc1)c1nc(-c2ccccc2)c[nH]1` [Example 214, (1R)-N-benzyl-1-(4-phenyl-1H-imidazol-2-yl)-1-butanamine], the melting point lay in the range of 218 to 220 °C.

Take `CCCCOC(=O)NCCc1nc(-c2ccc(-c3ccccc3)cc2)c(C)[nH]1` [Example 393, butyl 2-[4-(1,1′-biphenyl-4-yl)-5-methyl-1H-imidazol-2-yl]ethylcarbamate]: the melting point was in the range of 143 to 144 °C.

For `Fc1ccc(-c2c[nH]c([C@@H](NC3CCC3)C3CCCCC3)n2)cc1` [Example 35, N-{(S)-cyclohexyl[4-(4-fluorophenyl)-1H-imidazol-2-yl]methyl}cyclobutanamine], the melting point is 170 to 172 °C.

`CC(C)(C)OC(=O)N[C@@H](Cc1c[nH]c2ccccc12)c1nc(-c2ccccc2)c(-c2ccccc2)[nH]1` [Example 147, tert-butyl (1S)-1-(4,5-diphenyl-1H-imidazol-2-yl)-2-(1H-indol-3-yl)ethylcarbamate] gave a melting point of 142 to 143 °C.

As to `NC(Cc1c[nH]c2ccc(F)cc12)c1nc(-c2ccc(F)cc2)c[nH]1` (racemic) (as salt: hydrochloride) [Example 253, (R,S)-2-(5-fluoro-1H-indol-3-yl)-1-[4-(4-fluorophenyl)-1H-imidazol-2-yl]ethylamine], the melting point was in the range of 220 to 222 °C.

In turn, `CC(C)(NC(=O)OCc1ccccc1)c1nc(-c2ccc(-c3ccccc3)cc2)c[nH]1` [Example 247, 4-[2-(1-{[(benzyloxy)carbonyl]amino}-1-methylethyl)-1H-imidazol-4-yl]-1,1′-biphenyl] yielded a melting point of 148 to 152 °C.

As to `FC(F)(F)c1cccc(-c2c[nH]c([C@@H](NC3CCCCC3)C3CCCCC3)n2)c1` [Example 304, N-((S)-cyclohexyl{4-[3-(trifluoromethyl)phenyl]-1H-imidazol-2-yl}methyl)cyclohexanamine], the melting point lay in the range of 186 to 188 °C.

`FC(F)(F)c1cc(-c2c[nH]c([C@@H](NC3CCCCC3)C3CCCCC3)n2)cc(C(F)(F)F)c1` [Example 284, N-[(S)-{4-[3,5-bis(trifluoromethyl)phenyl]-1H-imidazol-2-yl}(cyclohexyl)methyl]cyclohexanamine] yielded a melting point of 180 to 182 °C.

On to `CN(Cc1nc(-c2ccccc2)c(-c2ccccc2)[nH]1)C(=O)OC(C)(C)C` [Example 156, tert-butyl (4,5-diphenyl-1H-imidazol-2-yl)methyl(methyl)carbamate], for which the melting point was 170 to 172 °C.

`CCCCOC(=O)NCCc1nc(-c2ccc(-c3cccc(F)c3F)cc2)c[nH]1` [Example 455, butyl 2-[4-(2′,3′-difluoro-1,1′-biphenyl-4-yl)-1H-imidazol-2-yl]ethylcarbamate] returned a melting point of 90 °C.

Consider `CC[C@H](NCc1ccccc1)c1nc(-c2ccc(-c3ccccc3)cc2)c[nH]1` [Example 198, (1S)-N-benzyl-1-(4-[1,1′-biphenyl]4-yl-1H-imidazol-2-yl)-1-propanamine], for which the melting point fell in the range of 220 to 222 °C.

For `CCCCCCC(NC(=O)OC(C)(C)C)c1nc(-c2ccccc2OC)c[nH]1` (racemic) [Example 183, tert-butyl (R,S)-1-[4-(2-methoxyphenyl)-1H-imidazol-2-yl]heptylcarbamate], the melting point lay in the range of 64 to 65 °C.

`CC(C)(C)CC(=O)NCCc1nc(-c2ccc(-c3ccccc3)cc2)c[nH]1` [Example 61, N-[2-(4-[1,1′-biphenyl]-4-yl-1H-imidazol-2-yl)ethyl]-3,3-dimethyl-butanamide] showed a melting point of 186 to 188 °C.

Take `NCCc1nc(-c2ccc(-c3ccccc3)cc2)c[nH]1` (as salt: hydrochloride) [Example 161, 2-(4-[1,1′-biphenyl]4-yl-1H-imidazol-2-yl)ethanamine]: the melting point lay within 228 to 230 °C.

As to `CCCCCCC(NC(=O)OC(C)(C)C)c1nc(-c2ccc(-c3ccccc3)cc2)c[nH]1` (racemic) [Example 192, (R,S)-4-(2-{1-[(tert-butoxycarbonyl)amino]heptyl}-1H-imidazol-4-yl)-1,1′-biphenyl], the melting point is 142 to 144 °C.

Consider `CCCCC(NCc1ccccc1)c1nc(-c2ccc(-c3ccccc3)cc2)c[nH]1` (racemic) [Example 60, (R,S)—N-benzyl-1-(4-[1,1′-biphenyl]4-yl-1H-imidazol-2-yl)-1-pentanamine], for which the melting point is 201 to 203 °C.

`CC(C)(N)c1nc(-c2ccccc2)c[nH]1` (as salt: hydrochloride) had a melting point of 200 to 204 °C.

`CC(C)(C)OC(=O)NCCCc1nc(-c2ccc(-c3ccccc3)cc2)c[nH]1` [Example 171, 4-(2-{3-[(tert-butoxycarbonyl)amino]propyl}-1H-imidazol-4-yl)-1,1′-biphenyl] showed a melting point of 145 to 146 °C.

`CC(C)(C)OC(=O)NCc1nc(-c2ccccc2)c(-c2ccccc2)[nH]1` [Example 157, tert-butyl (4,5-diphenyl-1H-imidazol-2-yl)methylcarbamate] yielded a melting point of 144 to 146 °C.

The molecule `CN(CC#N)Cc1nc(-c2cc(C(C)(C)C)c(O)c(C(C)(C)C)c2)cs1` [Example 3, 2-[({4-[3,5-di(tert-butyl)-4-hydroxyphenyl]-1,3-thiazol-2-yl}methyl)(methyl)amino]acetonitrile] had a melting point of 150 to 156 °C.

`CCCCOC(=O)NCCc1nc(-c2ccc(CC)cc2)c[nH]1` [Example 450, butyl 2-[4-(4-ethylphenyl)-1H-imidazol-2-yl]ethylcarbamate] yielded a melting point of 92.4 °C.

`CC(C)[C@@H](NC1CCCCC1)c1nc(-c2ccc(F)cc2)c[nH]1` [Example 276, N-{(1R)-1-[4-(4-fluorophenyl)-1H-imidazol-2-yl]-2-methylpropyl}-cyclohexanamine] had a melting point of 224 to 226 °C.

`c1cc(C2CCCCC2)ccc1-c1c[nH]c([C@@H](NC2CCC2)C2CCCCC2)n1` (as salt: hydrochloride) [Example 275, N-{(S)-cyclohexyl[4-(4-cyclohexylphenyl)-1H-imidazol-2-yl]methyl}cyclobutanamine] came in with a melting point of 190 to 192 °C.

Molecule `CCCCCCC(NCc1ccccc1)c1nc(-c2cccc(Br)c2)c[nH]1` (racemic) (as salt: acetate) [Example 193, (R,S)-N-benzyl-1-[4-(3-bromophenyl)-1H-imidazol-2-yl]-1-heptanamine] registered a melting point of 115 to 116 °C.

As to `CC(C)CCCC(N)c1nc(-c2cccc(Br)c2)c[nH]1` (racemic) (as salt: hydrochloride) [Example 233, (R,S)-1-[4-(3-bromophenyl)-1H-imidazol-2-yl]-5-methyl-1-hexanamine], the melting point lay in the range of 200 to 202 °C.

For `c1ccc(-c2c[nH]c([C@@H](NC3CCC3)C3CCCCC3)n2)cc1` (as salt: hydrochloride) [Example 83, N-[(S)-cyclohexyl(4-phenyl-1H-imidazol-2-yl)methyl]-cyclobutanamine], the melting point was in the range of 210 to 212 °C.

For the molecule `CCCCOC(=O)NCCc1nc(-c2ccc(-c3cccc(F)c3)cc2)c[nH]1` [Example 444, butyl 2-[4-(3′-fluoro-1,1′-biphenyl-4-yl)-1H-imidazol-2-yl]ethylcarbamate], the melting point turned out to be 141.5 °C.

Take `COc1ccc(-c2c[nH]c(CCNC(=O)OCCC(C)(C)C)n2)cc1` [Example 388, 3,3-dimethylbutyl 2-[4-(4-methoxyphenyl)-1H-imidazol-2-yl]ethylcarbamate]: the melting point stood at 116.8 °C.

Take `CC(C)(C)OC(=O)NCc1nc(-c2ccc(-c3ccccc3)cc2)c[nH]1` [Example 137, 4-(2-{[(tert-butoxycarbonyl)amino]methyl}-1H-imidazol-4-yl)-1,1′-biphenyl]: the melting point is 100 to 102 °C.

`NCCCCCCc1nc(-c2ccccc2)c[nH]1` (as salt: hydrochloride) [Example 180, 6-(4-phenyl-1H-imidazol-2-yl)hexylamine] showed a melting point of 244 to 246 °C.

Molecule `CCCCCCC(NCc1ccccc1)c1nc(-c2ccc(Cl)c(Cl)c2)c[nH]1` (racemic) [Example 77, (R,S)-N-benzyl-1-[4-(3,4-dichlorophenyl)-1H-imidazol-2-yl]-1-heptanamine] registered a melting point of 192 to 194 °C.

By melting point is commonly meant the temperature, or range, at which the solid turns liquid.
